# Test results from patent publication US20070244200A1, “Method for triggering angiogenic response” (priority 2006, published 2007).
# “And” between values parts separate entries of the source, which are not always exact repeats. Identical values can stand only once.
# System: rabbit aortic endothelial cells (RAEC)
# Test: Cord formation on Matrigel (in vitro angiogenesis assay)
# Type: cell-based
# Conditions: 18-24 h; for Percent Increase in Cord length, Set I / Percent Increase in Cord length, Set II / Percent Increase in Cord length, Set III: individual picture scores; for Percent Increase in Cord length, Mean: mean of 18 scores
# Experimental: In carrying this invention, materials needed in this example include commercially available items as follows: a 96 Well Plate, for example, flat bottom 96 well plate (Falcon 353072); Media-BM-2 (Clonetics CC-3162), DMEM (Gibco Cat#11960044); Matrigel-Beckton Dickinson (Cat#40234); Cells; HUVEC (2×10^6/ml) in EBM-2 in EBM-2; and Image Analysis-Image-Pro Plus In this example, the assay is performed under hood is, a Laminar Flow Hood. Frozen Matrigel (Beckton Dickinson 40234) is placed overnight on ice to thaw. Then, a concentration of matrigel is adjusted to 10 mg/ml using DMEM media. An ice cold 96 well plate is then placed on ice in a flat dish. Using an ice cold tip, gently layer 60 μl of matrigel (10 mg/ml; kept on ice) in each well. Gently tap the plate so that matrigel is evenly distributed in each well. The assay thereafter involves the following steps and protocols of: Removing the ice under the plate and incubate the plate for 15 min at room temperature; transfer the plate to a 37° C. incubator for at least 30 min for the Matrigel to polymerize; prepare methanandamide at 2X the desired concentration in culture media; harvest RAEC (rabbit aortic endothelial cells) in culture media and adjust the cell density to 2×10^5/ml; mix 500 μl of drug with 500 μl of cell suspension and place 200 μl of this suspension in duplicate wells on polymerized matrigel (being cautious to not touch matrigel with the tip and to dispense cells very gently and slowly on the matrigel to avoid damage to matrigel layer); incubate the compound concentration in a 37° C. humidified incubator for 18-24 h observe condition of cords under a microscope.; take at least three pictures (10 X) from different fields from each well (or six pictures from duplicate wells); count number of junctions and tube length (mm) from each picture using Image Pro Image Analysis System; and analyze the data.
# In accordance with a preferred embodiment of the present invention, the effect of methanandamide on rabbit aortic endothelial cells (RAEC) was tested for its ability to induce cord formation on matrigel. This process entails an accepted in vitro assay for angiogenesis. The procedures involve analyses with three different concentrations of methanandamide compound and repeated the experiments three different times in duplicate. As mentioned earlier above in the protocol, the 3 pictures from each well were taken. Therefore, for each concentration (data point) we have 18 scores. The analysis entails the measure of two parameters: (1) cord length; and (2) cord junction number.
# In FIG. 1, there is shown representations for eighteen (18) scores of data points for each concentration of methanandamide compound analyzed. The scores indicated for each concentration of methanandamide resulted from three different concentrations of methanandamide, i.e. 10 nM, 50 nM, and 100 nM. Three (3) pictures taken from each field or well (Six (6) pictures for duplicate wells). Each treatment or analysis was done in duplicate in 3 separate sets, i.e., Set I, Set II, and Set III. Therefore, for each concentration data point has eighteen (18) scores (3×2×3=18 data points).
structure (smiles),measurement,setting,value
"CCCCC/C=C\C/C=C\C/C=C\C/C=C\CCCC(=O)N[C@H](C)CO [Methanandamide, methyl arachidonyl ethanolamide]","Percent Increase in Cord length, Set I",Methanandamide 10 nM,12% (2×) and 11% and 9% and 13% and 10%
same,"Percent Increase in Cord length, Set II",Methanandamide 10 nM,16% and 21% and 14% and 18% and 13% and 12%
same,"Percent Increase in Cord length, Set III",Methanandamide 10 nM,14% and 10% and 17% (2×) and 13% and 15%
same,"Percent Increase in Cord length, Mean",Methanandamide 10 nM,14%
same,"Percent Increase in Cord length, Set I",Methanandamide 50 nM,17% and 22% and 25% and 32% (2×) and 19%
same,"Percent Increase in Cord length, Set II",Methanandamide 50 nM,17% and 26% and 22% (2×) and 28% and 18%
same,"Percent Increase in Cord length, Set III",Methanandamide 50 nM,"34% and 25% and 30, 30, Percent (2×) and 26% and 35%"
same,"Percent Increase in Cord length, Mean",Methanandamide 50 nM,25%
same,"Percent Increase in Cord length, Set I",Methanandamide 100 nM,45% and 42% (2×) and 39% and 47% and 40%
same,"Percent Increase in Cord length, Set II",Methanandamide 100 nM,37% and 41% and 44% (2×) and 32% and 34%
same,"Percent Increase in Cord length, Set III",Methanandamide 100 nM,38% and 42% and 44% and 47% and 36% and 34%
same,"Percent Increase in Cord length, Mean",Methanandamide 100 nM,40%
